Measurements from paper PMC6680510, “Benzotriazine Di-Oxide Prodrugs for Exploiting Hypoxia and Low Extracellular pH in Tumors” (Molecules, 2019).
Read-outs that look alike come from different tables or passages of the source.

Experiments:
[1] = system: SiHa cells; test: Cellular uptake in stirred aerobic single cell suspensions (HPLC, 3H-mannitol correction)
Description: In these experiments, cell pellets were collected by centrifugation and ^3H-mannitol was used as a cell-excluded marker to enable correction for the entrapped extracellular medium.
Log-phase cultures were dissociated with trypsin/EDTA, followed by the addition of the medium with DNAase I (Sigma DN-25) at 100 μg/mL for 5 min at 37 °C to minimize clumping. The cell pellets were collected by centrifugation and resuspended in αMEM with 5% FBS at pH 7.4 or 6.5 to 2 × 10^6 cells/mL. Samples (12 mL) were equilibrated with magnetic stirring at 37 °C under flowing humidified 5% CO2/air or N2 (50–100 mL/min), as previously described [86]. After equilibration for 60 min, the compounds were added in 50 μL of DMSO. The samples (5 mL) were withdrawn 5 and 60 min later, where the cell pellets were then collected by centrifugation and 4 mL of the supernatant was discarded. The pellets were resuspended in the remaining 1 mL, transferred to microcentrifuge tubes containing 7 μL ^3H-mannitol (740 GBq/mmol, American Radiolabeled Chemicals Inc., St. Louis, MO) as an extracellular marker, and then centrifuged (11,000g × 30s). The supernatant was removed and frozen at −80 °C (extracellular samples) and the tubes were centrifuged again, and any remaining medium was carefully removed. Ice-cold MeOH (80 μL) was added to the pellets which were disrupted by pipetting and stored at −80 °C (intracellular samples). When these were thawed for HPLC analysis (Section 4.12), the volume of extracellular water trapped in the pellets was determined by the scintillation counting (PerkinElmer Tri-Carb B2910TR Liquid Scintillation) of 25 μL of each extracellular and intracellular sample in 3 mL of Emulsifier-Safe™ scintillation cocktail (PerkinElmer). The extracellular volume in each intracellular sample was used to correct the intracellular drug concentration as previously described [87].
The samples were analyzed using an Agilent 1200 HPLC with a diode array absorbance detector and autosampler maintained at 4 °C (Agilent Technologies). The frozen samples were thawed, then centrifuged (11,000g × 5 min), and then extracellular samples were injected directly (typically 20 μL), while for the intracellular samples 30 μL was mixed 1:1 with αMEM and 50 μL was injected. […] All calibration curves were linear (R^2 > 0.999). The column was an Agilent ZORBAX Eclipse (XDB-C18, 5u, 2.1 × 150 mm, Agilent Technologies) with a flow rate of 0.4 mL/min. For SN30000 (2), the mobile phase was a mixture of 80% MeCN/water v/v (A), and a 45 mM formate buffer at a pH 4.5, eluting with a linear gradient of 5–100% A over 18 min. The same method was used for the BTO acids, except for 4a, where the aqueous mobile phase pH was reduced to 3.5.
Values are mean and SEM for 3 replicates. ND: Not detected.

[2] = system: SiHa cells; test: IC50 assay (inhibition of proliferation, 4 h exposure, SRB); conditions: SiHa; for IC50: Homo sapiens, 4 h
Summary of the method: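 Cells exposed to compound for 4 h in titrated medium, then washed and regrown 5 days under standard conditions (oxia, pHe 7.4). Growth read by sulforhodamine B staining; IC50 from 4-parameter logistic regression of duplicate cultures.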

[3] = system: SiHa cells; test: IC50 assay modified for chronic hypoxia (oxia, hypoxia, anoxia); assay type: cell-based; conditions: for IC50: Homo sapiens
Description: There are relatively few viable cells in tumors at O2 concentrations as low as in the above anoxic experiments. In addition, extensive changes in gene expression occur under chronic exposure to intermediate O2 concentrations (chronic hypoxia), including the expression of proteins that regulate pHi. […] Therefore, oxic and anoxic exposures were also tested in these same experiments. The 24 h adaptation to hypoxia had little effect on the subsequent growth of the cultures at either pHe value (Figure S6).
To minimize problems with poor cell attachment under chronic hypoxia, the drugs were added from a 3-fold dilution series made in a separate plate, rather than by serial dilution in the plates containing the cells. In addition, the drugs were removed after the 4 h exposure by centrifuging the plates (200g × 5 min) prior to each aspiration. The same modifications were used for the oxic drug exposures in these experiments.

[4] = system: MDCK-II cells with forced expression of BCRP or Pgp; test: IC50 under anoxia in cells with forced expression of efflux transporters; conditions: MDCK-II cell lines under anoxia, preliminary experiments
Description: expression of BCRP or Pgp.
Cells were seeded at 300 cells/well in DMEM with 10% FBS in 96 well plates in an
anaerobic chamber, allowed to attach for 2 h then exposed to drugs for 4 h under anoxia. Cells were
then washed with fresh medium and grown for 5 days under aerobic conditions before staining with
SRB. Values are mean ± SEM from 2 separate experiments.

[5] = design: method as in PMID 24737463; conditions: cited from earlier work
[6] = system: SiHa and SiHa/POR cells; test: IC50 in SiHa versus SiHa/POR cultures under anoxia; assay type: cell-based; conditions: 4 h under anoxia, pHe 7.4
Description: The lack of effect of POR over-expression on the reductive metabolism of the BTO acids in intact cells led us to compare the cytotoxicities of SN30000 (2), 4a, and 7a in SiHa/POR, and the parental line, under anoxia (Figure 6).
Drug exposure was for 4 h under anoxia, at pHe 7.4, with regrowth under aerobic conditions for 5 days before staining with SRB. Values are means and SEM for the two experiments, each with triplicate cultures at each drug concentration. TEXT PRINTED IN THE PICTURE: Cmpd 2: Ratio 6.75 ± 0.20 | Cmpd 4a: Ratio 3.40 ± 0.22 | Cmpd 7a: Ratio 2.67 ± 0.46

[7] = system: UT-SCC-74B cells; test: IC50 assay (inhibition of proliferation, 4 h exposure, SRB); assay type: cell-based; conditions: UT-SCC-74B, UT-SCC-74B; for IC50: Homo sapiens, 4 h
Description: Cells were seeded in 96-well plates (SiHa or FaDu 1500 cells/well, UT-SCC-74B 800 cells/well) in 100 μL. After incubation for 2 h, the drugs were added in 50 μL of the same titrated medium at 3× the final concentration to duplicate the wells. After a further 4 h the plates were checked for drug precipitation using a phase contrast microscope, then drugs were removed by aspirating and washing with the standard (pH 7.4) medium, then aspirating again and adding 150 μL of the medium. Cultures were then grown for 5 days before staining with sulphorhodamine B and measuring absorbance, with the estimation of IC50 values using 4-parameter logistic regression, as previously carried out.
The medium and plasticware was equilibrated in the chamber for 3 days prior to use. In the anoxia experiments, FaDu cells were plated in poly-L-lysine coated plates (Corning Cat # 356461) to improve attachment. […]
Footnotes: a Number of experiments. b Anoxic cytotoxicity ratio = oxic IC50/anoxic IC50. c pH
cytotoxicity ratio = IC50 at pHe 7.4/ IC50 at pHe 6.5. d Overall ratio = oxic IC50 pHe 7.4 / anoxic IC50 pHe
6.5. Values are means and errors are SEM. For ratios, the errors are root mean square SEM. […]

[8] = pulse radiolysis, redox indicator MV^2+; cited from earlier work
[9] = system: FaDu cells; test: IC50 assay (inhibition of proliferation, 4 h exposure, SRB); assay type: cell-based; conditions: for IC50: Homo sapiens, 4 h
[10] = system: SiHa and FaDu cells; test: IC50 assay, summary statements over both cell lines; assay type: cell-based; conditions: read-out: Potency (IC50) under anoxia at pHe 6.5
Description: Cells were seeded in 96-well plates (SiHa or FaDu 1500 cells/well, UT-SCC-74B 800 cells/well) in 100 μL. After incubation for 2 h, the drugs were added in 50 μL of the same titrated medium at 3× the final concentration to duplicate the wells. After a further 4 h the plates were checked for drug precipitation using a phase contrast microscope, then drugs were removed by aspirating and washing with the standard (pH 7.4) medium, then aspirating again and adding 150 μL of the medium. Cultures were then grown for 5 days before staining with sulphorhodamine B and measuring absorbance, with the estimation of IC50 values using 4-parameter logistic regression, as previously carried out [85].

[11] = design: method as in PMID 28848445; conditions: cited from earlier work
[12] = read-out: Anoxic IC50, SiHa, pHe 6.5, 4 h, anoxic
[13] = read-out: Anoxic IC50, SiHa, pHe 7.4, 4 h, anoxic
[14] = read-out: Oxic IC50, SiHa, pHe 6.5, 4 h, oxic
[15] = read-out: Oxic IC50, SiHa, pHe 7.4, 4 h, oxic
[16] = pHe 6.5, 4 h, anoxic, read-out: Anoxic IC50
[17] = pHe 6.5, 4 h, oxic, read-out: Oxic IC50
[18] = pHe 7.4, 4 h, anoxic, read-out: Anoxic IC50
[19] = pHe 7.4, 4 h, oxic, read-out: Oxic IC50

Structure (SMILES): [O-][n+]1nc(CCCN2CCOCC2)[n+]([O-])c2cc3c(cc21)CCC3 [Compound 2, SN30000, reference compound]
- Uptake (Ci/Ce) at 4 °C relative to 37 °C ([1]; SiHa cell suspensions, data not shown): minor increase
- Ci ratio (Ci at pHe 6.5/Ci at pHe 7.4) ([1]; aerobic SiHa suspensions, 5 min): 1.09 ± 0.09 fold
- Ci ratio (Ci at pHe 6.5/Ci at pHe 7.4) ([1]; aerobic SiHa suspensions, 60 min): 0.95 ± 0.07 fold
- Ci/Ce, pHe 6.5 Obs 5 min ([1]; aerobic SiHa suspensions, pHe 6.5, 5 min): 2.75 ± 0.07
- Ci/Ce, pHe 6.5 Obs 60 min ([1]; aerobic SiHa suspensions, pHe 6.5, 60 min): 2.37 ± 0.02
- Ci/Ce, pHe 7.4 Obs 5 min ([1]; aerobic SiHa suspensions, pHe 7.4, 5 min): 2.48± 0.27
- Ci/Ce, pHe 7.4 Obs 60 min ([1]; aerobic SiHa suspensions, pHe 7.4, 60 min): 2.49 ± 0.05
- IC50 [2, 12]: 5.52 ± 2.01 µM
- IC50 [2, 13]: 2.87 ± 0.23 µM
- IC50 [2, 14]: 253 ± 31 µM
- IC50 [2, 15]: 292 ± 15 µM
- TMR (overall TME ratio = oxic IC50 pHe 7.4/anoxic IC50 pHe 6.5) [2]: 53 ± 19
- PCR Anoxic (IC50 at pHe 7.4/IC50 at pHe 6.5) [2]: 0.52 ± 0.19
- PCR oxic (IC50 at pHe 7.4/IC50 at pHe 6.5) [2]: 1.15 ± 0.15
- ACR (anoxic cytotoxicity ratio = oxic IC50/anoxic IC50) ([2]; pHe 6.5): 46 ± 18.0
- ACR (anoxic cytotoxicity ratio = oxic IC50/anoxic IC50) ([2]; pHe 7.4): 101 ± 10
- PCR (pH cytotoxicity ratio) ([2]; representative experiment (Figure 3), oxia and anoxia): little or no dependence on pHe
- ACR (anoxia cytotoxicity ratio) ([2]; representative experiment (Figure 3), pHe 7.4 and 6.5): approximately 140
- PCR (IC50 for pHe 7.4/IC50 for pHe 6.5) ([3]; 0.2% O2): 1.76 ± 0.43
- HCR ([3]; 0.2% O2, both pHe values): approximately 20
- PCR (IC50 for pHe 7.4/IC50 for pHe 6.5) ([3]; 20% O2): 1.95 ± 0.66
- PCR (IC50 for pHe 7.4/IC50 for pHe 6.5) ([3]; <0.01% O2): 0.84 ± 0.15
- IC50 ([3]; 0.2% O2 (24 h before and during 4 h exposure), pHe 6.5): 9.88 ± 2.34 µM
- IC50 ([3]; 0.2% O2 (24 h before and during 4 h exposure), pHe 7.4): 17.4 ± 1.02 µM
- IC50 ([3]; 4 h, 20% O2, pHe 6.5, 4 h): 207 ± 69 µM
- IC50 ([3]; 4 h, 20% O2, pHe 7.4, 4 h): 404 ± 21 µM
- IC50 ([3]; 4 h, <0.01% O2, pHe 6.5, 4 h): 3.07 ± 0.38 µM
- IC50 ([3]; 4 h, <0.01% O2, pHe 7.4, 4 h): 2.59 ± 0.35 µM
- ACR (IC50 for 20% O2/IC50 for <0.01% O2) ([3]; pHe 6.5): 67 ± 24
- HCR (IC50 for 20% O2/IC50 for 0.2% O2) ([3]; pHe 6.5): 20.1 ± 8.6
- ACR (IC50 for 20% O2/IC50 for <0.01% O2) ([3]; pHe 7.4): 156 ± 23
- HCR (IC50 for 20% O2/IC50 for 0.2% O2) ([3]; pHe 7.4): 23.2 ± 1.8
- Effect of overexpression of BCRP or Pgp efflux transporters on sensitivity [4]: no effect
- pKa of the radical anion [5]: 5.48 ± 0.26
- IC50 ratio SiHa / SiHa/POR (fold lower IC50 in POR cell line) [6]: 6.75 ± 0.20
- IC50 ratio SiHa / SiHa/POR (fold lower IC50 in POR cell line) ([6]; listed as SN30000): 6.75
- IC50 ([7]; pHe 6.5, 4 h, 20% O2, read-out: Oxic IC50): 190 ± 42 µM
- IC50 ([7]; pHe 6.5, 4 h, <0.01% O2, read-out: Anoxic IC50): 6.29 ± 1.79 µM
- IC50 ([7]; pHe 7.4, 4 h, 20% O2, read-out: Oxic IC50): 477 ± 65 µM
- IC50 ([7]; pHe 7.4, 4 h, <0.01% O2, read-out: Anoxic IC50): 5.92 ± 2.42 µM
- TME ratio (oxic IC50 pHe 7.4/anoxic IC50 pHe 6.5) [7]: 75.8 ± 23.9
- PCR Anoxic (IC50 at pHe 7.4/IC50 at pHe 6.5) ([7]; anoxic): 0.94± 0.47
- PCR oxic (IC50 at pHe 7.4/IC50 at pHe 6.5) ([7]; oxic): 2.51 ± 0.65
- ACR (oxic IC50/anoxic IC50) ([7]; pHe 6.5): 30.2 ± 10.9
- ACR (oxic IC50/anoxic IC50) ([7]; pHe 7.4): 80.6 ± 34.7
- E^0′ one-electron reduction potential [8]: −401 ± 8 [MV^2+] ^g mV
- TMR (oxic IC50 pHe 7.4/anoxic IC50 pHe 6.5) [9]: 29.8 ± 5.7
- IC50 [9, 16]: 8.63 ± 1.55 µM
- IC50 [9, 17]: 277 ± 15 µM
- IC50 [9, 18]: 4.16 ± 0.35 µM
- IC50 [9, 19]: 258 ± 15 µM
- PCR Anoxic (IC50 at pHe 7.4/IC50 at pHe 6.5) ([9]; anoxic): 0.48 ± 0.10
- PCR oxic (IC50 at pHe 7.4/IC50 at pHe 6.5) ([9]; oxic): 0.93 ± 0.08
- ACR (oxic IC50/anoxic IC50) ([9]; pHe 6.5): 32.1 ± 6.04
- ACR (oxic IC50/anoxic IC50) ([9]; pHe 7.4): 62.0 ± 6.34
- IC50 [10]: 2.9 to 8.6 µM

Structure (SMILES): Nc1n[n+]([O-])c2ccccc2[n+]1[O-] [Compound 3, tirapazamine, reference compound]
- IC50 [2, 12]: 2.9 ± 0.38 µM
- IC50 [2, 13]: 2.81 ± 0.3 µM
- IC50 [2, 14]: 91 ± 21 µM
- IC50 [2, 15]: 162 ± 8 µM
- TMR (overall TME ratio = oxic IC50 pHe 7.4/anoxic IC50 pHe 6.5) [2]: 56 ± 8
- PCR Anoxic (IC50 at pHe 7.4/IC50 at pHe 6.5) [2]: 0.97 ± 0.16
- PCR oxic (IC50 at pHe 7.4/IC50 at pHe 6.5) [2]: 1.77 ± 0.42
- E^0′ one-electron reduction potential [8]: −456 ± 8 [MV^2+] ^h mV
- TMR (oxic IC50 pHe 7.4/anoxic IC50 pHe 6.5) [9]: 26.2 ± 5.9
- IC50 [9, 16]: 6.96 ± 1.38 µM
- IC50 [9, 17]: 127 ± 14 µM
- IC50 [9, 18]: 5.9 ± 0.48 µM
- IC50 [9, 19]: 182 ± 20 µM
- PCR Anoxic (IC50 at pHe 7.4/IC50 at pHe 6.5) ([9]; anoxic): 0.85 ± 0.18
- PCR oxic (IC50 at pHe 7.4/IC50 at pHe 6.5) ([9]; oxic): 1.43 ± 0.22
- ACR (oxic IC50/anoxic IC50) ([9]; pHe 6.5): 18.3 ± 4.1
- ACR (oxic IC50/anoxic IC50) ([9]; pHe 7.4): 30.9 ± 4.2
- IC50 ([10]; SiHa and FaDu, anoxia, pHe 6.5): 2.9 to 8.6 µM

Structure (SMILES): O=C(O)CCc1nc2cc3c(cc2[n+]([O-])n1)CCC3 [Compound 15d, 3-(2-Carboxyethyl)-7,8-dihydro-6H-indeno[5,6-e][1,2,4]triazine 1-Oxide]
- Protein bound in mouse plasma [11]: > 90%
